Experiments:
Test in all cases: relative viability (nuclei count vs DMSO), 5 days (fraction); higher = more cells survive
[1] = compound: C1=CC=C2C(=C1)N=C(S2)C(C#N)C3=NC(=NC=C3)NCCC4=CN=CC=C4 + CC1(C)CCC(c2ccc(Cl)cc2)=C(CN2CCN(c3ccc(C(=O)NS(=O)(=O)c4ccc(N[C@H](CCN5CCOCC5)CSc5ccccc5)c(S(=O)(=O)C(F)(F)F)c4)cc3)CC2)C1 [Navitoclax] (partner 0.5 µM)
Outline: (§1)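 For relative viability, nuclei counts in treated wells were divided by those in vehicle wells. Lung cancer cell lines had been pin-tool dosed in 1536-well plates the day after seeding and cultured for 5 days, then fixed and stained in one step (final 0.05% Triton X-100, 1% formaldehyde, 1 ug/ml Hoechst) and imaged at 4×. Doses were one drug alone or a fixed anchor-drug dose plus five library-drug doses (not always all listed) in √10 steps, and values are duplicate-plate medians.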

CUDC-101 + Phenformin = compound: C#Cc1cccc(Nc2ncnc3cc(OC)c(OCCCCCCC(=O)NO)cc23)c1 [CUDC-101] + N=C(N)NC(=N)NCCc1ccccc1 [Phenformin] (partner 250 µM)
Outline: as §1

CUDC-101 + Vorinostat = compound: C#Cc1cccc(Nc2ncnc3cc(OC)c(OCCCCCCC(=O)NO)cc23)c1 [CUDC-101] + O=C(CCCCCCC(=O)Nc1ccccc1)NO [Vorinostat] (partner 1 µM)
Outline: as §1

CUDC-101 + OSI-027 = compound: C#Cc1cccc(Nc2ncnc3cc(OC)c(OCCCCCCC(=O)NO)cc23)c1 [CUDC-101] + COc1cccc2cc(-c3nc([C@H]4CC[C@H](C(=O)O)CC4)n4ncnc(N)c34)[nH]c12 [OSI-027] (partner 0.5 µM)
Outline: as §1

Cell Line	relative viability ([1]; first compound 0.005 µM)	relative viability ([1]; first compound 0.01581 µM)	relative viability ([1]; first compound 0.05 µM)	relative viability ([1]; first compound 0.1581 µM)	relative viability ([1]; first compound 0.5 µM)	relative viability (CUDC-101 + Phenformin; first compound 0.01 µM)	relative viability (CUDC-101 + Phenformin; first compound 0.03162 µM)	relative viability (CUDC-101 + Phenformin; first compound 0.1 µM)	relative viability (CUDC-101 + Phenformin; first compound 0.3162 µM)	relative viability (CUDC-101 + Phenformin; first compound 1 µM)	relative viability (CUDC-101 + Vorinostat; first compound 0.01 µM)	relative viability (CUDC-101 + Vorinostat; first compound 0.03162 µM)	relative viability (CUDC-101 + Vorinostat; first compound 0.1 µM)	relative viability (CUDC-101 + Vorinostat; first compound 0.3162 µM)	relative viability (CUDC-101 + Vorinostat; first compound 1 µM)	relative viability (CUDC-101 + OSI-027; first compound 0.01 µM)	relative viability (CUDC-101 + OSI-027; first compound 0.03162 µM)	relative viability (CUDC-101 + OSI-027; first compound 0.1 µM)	relative viability (CUDC-101 + OSI-027; first compound 0.3162 µM)	relative viability (CUDC-101 + OSI-027; first compound 1 µM)
HCC-78	0.454	0.774	0.623	0.912	0.818	0.709	0.705	0.675	0.602	0.246	0.441	0.413	0.46	0.377	0.259	0.291	0.352	0.362	0.335	0.218
HCC-366	0.853	0.998	1.04	1.28	0.98	0.604	0.555	0.704	0.667	0.64	0.393	0.312	0.29	0.313	0.254	0.914	0.768	1.01	1.15	0.815
HCC-827	1.07	1.07	1.02	1.05	1.04	0.376	0.18	0.161	0.143	0.14	0.929	0.835	0.168	0.156	0.14	0.813	0.46	0.177	0.144	0.136
HOP-62	0.854	1.25	1.05	1.16	0.871	0.628	0.656	0.758	0.683	0.545	0.716	0.57	0.665	0.524	0.261	0.862	0.842	0.896	0.924	0.567
IA-LM		0.816	0.817	0.826	0.568						0.997	0.915	0.93	0.797	0.586					
LC-2-ad	0.358	0.497	0.447	0.581	0.351	0.65	0.651	0.689	0.551	0.287	0.721	0.716	0.703	0.658	0.538	0.823	1.04	0.985	0.827	0.339
LCLC-97TM1	0.382	0.429	0.339	0.596	0.288	0.426	0.381	0.436	0.471	0.362	0.815	0.778	0.663	0.56	0.195	0.635	0.571	0.445	0.548	0.273
LCLC-103H						0.384	0.367	0.36	0.357	0.31	0.759	0.81	0.7	0.692	0.61	0.45	0.42	0.485	0.435	0.433
LK-2		0.931	0.824	0.916	0.843	0.369	0.727	0.411	0.479	0.15	0.37	0.407	0.228	0.23	0.158	0.217	0.212	0.201	0.203	0.15

From the supplement of paper PMC10307832
